In article PMC4685925, “Exploring architectures displaying multimeric presentations of a trihydroxypiperidine iminosugar” (Beilstein Journal of Organic Chemistry, 2015) one finds IC50 data, which are given here for one compound.

SMILES strings stand for the structures.

The assay concerns the target T1, amyloglucosidase (Aspergillus niger, UniProt P69328).
T1 construct: gene GLAA
Description: commercial glycosidase inhibition assay ([…] inhibition at […]; IC50 determined). It is filed as biochemical.

T1 sequence (P69328 25-640): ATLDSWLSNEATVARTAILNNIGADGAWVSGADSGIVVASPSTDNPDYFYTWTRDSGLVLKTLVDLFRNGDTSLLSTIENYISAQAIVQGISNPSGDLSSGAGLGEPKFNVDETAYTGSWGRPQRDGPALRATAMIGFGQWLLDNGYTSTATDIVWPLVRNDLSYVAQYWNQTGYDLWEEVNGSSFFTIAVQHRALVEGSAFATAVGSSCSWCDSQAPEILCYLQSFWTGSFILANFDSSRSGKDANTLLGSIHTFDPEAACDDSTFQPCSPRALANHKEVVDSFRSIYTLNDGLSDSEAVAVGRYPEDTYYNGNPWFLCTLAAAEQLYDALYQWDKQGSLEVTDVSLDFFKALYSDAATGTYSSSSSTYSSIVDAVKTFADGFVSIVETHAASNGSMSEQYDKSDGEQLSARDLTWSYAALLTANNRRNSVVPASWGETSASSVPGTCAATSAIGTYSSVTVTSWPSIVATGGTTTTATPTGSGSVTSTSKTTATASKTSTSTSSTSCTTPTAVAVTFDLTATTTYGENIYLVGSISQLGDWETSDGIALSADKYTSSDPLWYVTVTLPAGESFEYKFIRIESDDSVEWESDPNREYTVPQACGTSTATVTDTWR

A word on the IC50: it is the midpoint of a concentration-inhibition curve. Low values mean higher potency, high ones lower potency. For `NCc1cn(CCCN2C[C@@H](O)C(O)[C@H](O)C2)nn1` [compound 15, Deprotected monovalent iminosugar 15], 1.1 mM corresponded to half-maximal inhibition (IC50). This lies in the millimolar range.
